Source: patent publication US10849881B2, “Octahydro-cyclobuta[1,2-c;3,4-c′]dipyrrol-2-yl” (Hoffmann-La Roche Inc., priority 2013, dated 2020)

Molecular target: ATX (human His-tagged) (Homo sapiens (Human), UniProt Q13822)
Assay: Human ATX enzyme inhibition assay (fluorescence quenching, MR121 substrate)
Format: biochemical
Details: 30 nM ATX, 1 μM MR121 substrate, 30° C., pH 8.0
How it was run: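 Fluorescence quenching assay with MR121/tryptophan-labelled substrate analogue in Tris-HCl buffer (140 mM NaCl, CaCl2, MgCl2, 0.01% Triton X-100, pH 8.0). Serially diluted compounds were preincubated 15 min at 30 °C with 30 nM ATX (final), then 1 µM substrate (final) added and incubated 15 min at 30 °C.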

SMILES	IC50
O=C1CC(C(=O)N2C[C@@H]3[C@H]4CN(C(=O)c5ccc6[nH]nnc6c5)C[C@H]4[C@@H]3C2)Cc2ccccc21 (stereo partly drawn) [Example 1.041, 3-[(3aS,3bR,6aS,6bR)-5-(1H-benzotriazole-5-carbonyl)-octahydro-cyclobuta[1,2-c;3,4-c′]dipyrrole-2-carbonyl]-3,4-dihydro-2H-naphthalen-1-one]	538 nM
O=C(c1ccc(-c2ccc(Cl)cc2)cc1)N1C[C@@H]2[C@H](C1)[C@H]1CN(C(=O)[C@@H]3CCc4[nH]nnc4C3)C[C@@H]21 [Example 1.018, (4′-chloro-biphenyl-4-yl)-[(3aR,3bS,6aR,6bS)-5-((R)-4,5,6,7-tetrahydro-1H-benzotriazole-5-carbonyl)-octahydro-cyclobuta[1,2-c;3,4-c′]dipyrrol-2-yl]-methanone]	16 nM
Cn1c(C(=O)N2C[C@@H]3[C@H]4CN(C(=O)c5ccc6[nH]nnc6c5)C[C@H]4[C@@H]3C2)cc2ccc(Cl)cc21 [Example 1.034, [(3aR,3bS,6aR,6bS)-5-(1H-benzotriazole-5-carbonyl)-octahydro-cyclobuta[1,2-c;3,4-c′]dipyrrol-2-yl]-(6-chloro-1-methyl-1H-indol-2-yl)-methanone]	489 nM
N#Cc1ccc2cc(C(=O)N3C[C@@H]4[C@H](C3)[C@H]3CN(C(=O)c5ccc6[nH]nnc6c5)C[C@@H]43)ccc2c1 [Example 1.007, 6-[(3aS,3bS,6aR,6bR)-5-(1H-benzotriazole-5-carbonyl)-octahydro-cyclobuta[1,2-c;3,4-c′]dipyrrole-2-carbonyl]-naphthalene-2-carbonitrile]	62 nM
COc1cc(C(=O)N2C[C@@H]3[C@H]4CN(C(=O)c5ccc6[nH]nnc6c5)C[C@H]4[C@@H]3C2)nc2ccccc12 [Example 1.029, [(3aR,3bS,6aR,6bS)-5-(1H-benzotriazole-5-carbonyl)-octahydro-cyclobuta[1,2-c;3,4-c′]dipyrrol-2-yl]-(4-methoxy-quinolin-2-yl)-methanone]	70 nM
O=C(COc1ccc(OC(F)(F)F)cc1)N1C[C@@H]2[C@H](C1)[C@H]1CN(C(=O)c3ccc4[nH]nnc4c3)C[C@@H]21 [Example 1.008, 1-[(3aR,3bS,6aR,6bS)-5-(1H-benzotriazole-5-carbonyl)-octahydro-cyclobuta[1,2-c;3,4-c′]dipyrrol-2-yl]-2-(4-trifluoromethoxy-phenoxy)-ethanone]	36 nM
CC(C)Cn1c(C(=O)N2C[C@@H]3[C@H]4CN(C(=O)c5ccc6[nH]nnc6c5)C[C@H]4[C@@H]3C2)cc2ccccc21 [Example 1.037, [(3aR,3bS,6aR,6bS)-5-(1H-benzotriazole-5-carbonyl)-octahydro-cyclobuta[1,2-c;3,4-c′]dipyrrol-2-yl]-(1-isobutyl-1H-indol-2-yl)-methanone]	159 nM

Continued by falling IC50, values first:

IC50	SMILES
208 nM	O=C(c1ccc2[nH]nnc2c1)N1C[C@@H]2[C@H](C1)[C@H]1CN(C(=O)c3cc4cc(Cl)ccc4[nH]3)C[C@@H]21 [Example 1.048, [(3aR,3bS,6aR,6bS)-5-(1H-benzotriazole-5-carbonyl)-octahydro-cyclobuta[1,2-c;3,4-c′]dipyrrol-2-yl]-(5-chloro-1H-indol-2-yl)-methanone]
205 nM	Cc1cc(C(=O)N2C[C@@H]3[C@H]4CN(C(=O)c5ccc6[nH]nnc6c5)C[C@H]4[C@@H]3C2)nc2ccccc12 [Example 1.047, [(3aR,3bS,6aR,6bS)-5-(1H-benzotriazole-5-carbonyl)-octahydro-cyclobuta[1,2-c;3,4-c′]dipyrrol-2-yl]-(4-methyl-quinolin-2-yl)-methanone]
173 nM	O=C(c1ccc2[nH]nnc2c1)N1C[C@@H]2[C@H](C1)[C@H]1CN(S(=O)(=O)c3ccc(-c4ccc(F)cc4)cc3)C[C@@H]21 [Example 3, (1H-Benzotriazol-5-yl)-[(3aS,3bR,6aS,6bR)-5-(4′-fluoro-biphenyl-4-sulfonyl)-octahydro-cyclobuta[1,2-c;3,4-c′]dipyrrol-2-yl]-methanone]
11 nM	O=C(c1ccc2cc(-c3ccccc3)ccc2c1)N1C[C@@H]2[C@H](C1)[C@H]1CN(C(=O)c3ccc4[nH]nnc4c3)C[C@@H]21 [Example 1.015, [(3aS,3bS,6aR,6bR)-5-(1H-benzotriazole-5-carbonyl)-octahydro-cyclobuta[1,2-c;3,4-c′]dipyrrol-2-yl]-(6-phenyl-naphthalen-2-yl)-methanone]
8 nM	O=C(c1ccc2ccc(-c3ccccc3)cc2c1)N1C[C@@H]2[C@H](C1)[C@H]1CN(C(=O)c3ccc4[nH]nnc4c3)C[C@@H]21 [Example 1.050, [(3aS,3bS,6aR,6bR)-5-(1H-benzotriazole-5-carbonyl)-octahydro-cyclobuta[1,2-c;3,4-c′]dipyrrol-2-yl]-(7-phenyl-naphthalen-2-yl)-methanone]
8 nM	O=C(c1ccc2[nH]nnc2c1)N1C[C@@H]2[C@H](C1)[C@H]1CN(C(=O)c3cc4ccc(OC(F)(F)F)cc4[nH]3)C[C@@H]21 [Example 1.011, [(3aR,3bS,6aR,6bS)-5-(1H-benzotriazole-5-carbonyl)-octahydro-cyclobuta[1,2-c;3,4-c′]dipyrrol-2-yl]-(6-trifluoromethoxy-1H-indol-2-yl)-methanone]
6.5 nM	CC(C)Oc1cc(C(=O)N2C[C@@H]3[C@H]4CN(C(=O)c5ccc6[nH]nnc6c5)C[C@H]4[C@@H]3C2)cc2c1ccn2C [Example 1.065, [(3aS,3bS,6aR,6bR)-5-(1H-benzotriazole-5-carbonyl)-octahydro-cyclobuta[1,2-c;3,4-c′]dipyrrol-2-yl]-(4-isopropoxy-1-methyl-1H-indol-6-yl)-methanone]
